Experimental data as given in PubChem BioAssay (NCI).
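Growth conditions: 96-well plates. Treatment: test compound, 48 hours, 5 concentrations. Analysis: linear interpolation between bracketing concentrations; unreached endpoints set to highest concentration. TGI: total growth inhibition.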

Tests used:
Assay in all cases: NCI-60 cell line screen, 48 h
HL-60(TB) leukemia = tested on: HL-60(TB) leukemia
K-562 leukemia = tested on: K-562 leukemia
SK-OV-3 ovarian = tested on: SK-OV-3 ovarian
LOX IMVI melanoma = tested on: LOX IMVI melanoma
786-0 renal = tested on: 786-0 renal
NCI/ADR-RES ovarian = tested on: NCI/ADR-RES ovarian
CAKI-1 renal = tested on: CAKI-1 renal
HS 578T breast = tested on: HS 578T breast
UACC-62 melanoma = tested on: UACC-62 melanoma
DU-145 prostate = tested on: DU-145 prostate
OVCAR-4 ovarian = tested on: OVCAR-4 ovarian
HOP-62 NSCLC = tested on: HOP-62 NSCLC
SF-295 CNS = tested on: SF-295 CNS
CCRF-CEM leukemia = tested on: CCRF-CEM leukemia
MALME-3M melanoma = tested on: MALME-3M melanoma
MDA-MB-231 breast = tested on: MDA-MB-231 breast
U251 CNS = tested on: U251 CNS
RXF 393 renal = tested on: RXF 393 renal
M14 melanoma = tested on: M14 melanoma
SW-620 colon = tested on: SW-620 colon
TK-10 renal = tested on: TK-10 renal
COLO 205 colon = tested on: COLO 205 colon
UACC-257 melanoma = tested on: UACC-257 melanoma
A549 NSCLC = tested on: A549 NSCLC
SF-539 CNS = tested on: SF-539 CNS
OVCAR-5 ovarian = tested on: OVCAR-5 ovarian
HOP-92 NSCLC = tested on: HOP-92 NSCLC
HT29 colon = tested on: HT29 colon
A498 renal = tested on: A498 renal
MDA-MB-435 = tested on: MDA-MB-435
IGROV1 ovarian = tested on: IGROV1 ovarian
PC-3 prostate = tested on: PC-3 prostate
HCT-15 colon = tested on: HCT-15 colon
SN12C renal = tested on: SN12C renal
NCI-H460 lung = tested on: NCI-H460 lung
NCI-H23 lung = tested on: NCI-H23 lung
MCF7 breast = tested on: MCF7 breast
SK-MEL-2 melanoma = tested on: SK-MEL-2 melanoma
HCC-2998 colon = tested on: HCC-2998 colon
SR leukemia = tested on: SR leukemia
MDA-N = tested on: MDA-N
ACHN renal = tested on: ACHN renal
SNB-75 CNS = tested on: SNB-75 CNS
KM12 colon = tested on: KM12 colon
SK-MEL-5 melanoma = tested on: SK-MEL-5 melanoma
NCI-H522 lung = tested on: NCI-H522 lung
UO-31 renal = tested on: UO-31 renal
OVCAR-3 ovarian = tested on: OVCAR-3 ovarian
RPMI-8226 leukemia = tested on: RPMI-8226 leukemia
OVCAR-8 ovarian = tested on: OVCAR-8 ovarian
MOLT-4 leukemia = tested on: MOLT-4 leukemia
HCT-116 colon = tested on: HCT-116 colon
SF-268 CNS = tested on: SF-268 CNS
NCI-H226 lung = tested on: NCI-H226 lung
SK-MEL-28 melanoma = tested on: SK-MEL-28 melanoma
T-47D breast = tested on: T-47D breast
EKVX NSCLC = tested on: EKVX NSCLC
SNB-19 CNS = tested on: SNB-19 CNS

## O=Cc1ccc2c(c1)CC1(C2)Cc2ccc(C=O)cc2C1
HL-60(TB) leukemia
  TGI: 5.72 µM
K-562 leukemia
  TGI: 12.9 µM
SK-OV-3 ovarian
  TGI: > 100 µM
LOX IMVI melanoma
  TGI: 21.8 µM
786-0 renal
  TGI: 32 µM
NCI/ADR-RES ovarian
  TGI: 32.5 µM
CAKI-1 renal
  TGI: > 100 µM
HS 578T breast
  TGI: 28.7 µM
UACC-62 melanoma
  TGI: 23.8 µM
DU-145 prostate
  TGI: > 100 µM
OVCAR-4 ovarian
  TGI: > 69.7 µM
HOP-62 NSCLC
  TGI: 37.2 µM
SF-295 CNS
  TGI: > 70.4 µM
CCRF-CEM leukemia
  TGI: 5.9 µM
MALME-3M melanoma
  TGI: 46.1 µM
MDA-MB-231 breast
  TGI: 34.1 µM
U251 CNS
  TGI: 41.7 µM
RXF 393 renal
  TGI: > 25.4 µM
M14 melanoma
  TGI: 19.7 µM
SW-620 colon
  TGI: 39.2 µM
TK-10 renal
  TGI: 65 µM
COLO 205 colon
  TGI: 70.9 µM
UACC-257 melanoma
  TGI: 40.5 µM
A549 NSCLC
  TGI: > 95.3 µM
SF-539 CNS
  TGI: 15.1 µM
OVCAR-5 ovarian
  TGI: > 100 µM
HOP-92 NSCLC
  TGI: 53.2 µM
HT29 colon
  TGI: 53.6 µM
A498 renal
  TGI: 69.7 µM
MDA-MB-435
  TGI: 6.15 µM
IGROV1 ovarian
  TGI: 54.5 µM
PC-3 prostate
  TGI: 43.3 µM
HCT-15 colon
  TGI: > 46.6 µM
SN12C renal
  TGI: 64.5 µM
NCI-H460 lung
  TGI: 32.8 µM
NCI-H23 lung
  TGI: 49.8 µM
MCF7 breast
  TGI: > 70 µM
SK-MEL-2 melanoma
  TGI: 30.8 µM
HCC-2998 colon
  TGI: > 91.8 µM
SR leukemia
  TGI: 6.77 µM
MDA-N
  TGI: 5.99 µM
ACHN renal
  TGI: 62.1 µM
SNB-75 CNS
  TGI: > 100 µM
KM12 colon
  TGI: 60.4 µM
SK-MEL-5 melanoma
  TGI: 16.7 µM
NCI-H522 lung
  TGI: 54.9 µM
UO-31 renal
  TGI: > 50.6 µM
OVCAR-3 ovarian
  TGI: 34.1 µM
RPMI-8226 leukemia
  TGI: 22.1 µM
OVCAR-8 ovarian
  TGI: 31.3 µM
MOLT-4 leukemia
  TGI: 7.11 µM
HCT-116 colon
  TGI: 19.6 µM
SF-268 CNS
  TGI: 44.6 µM
NCI-H226 lung
  TGI: 62.6 µM
SK-MEL-28 melanoma
  TGI: 59.1 µM
T-47D breast
  TGI: 71.8 µM
EKVX NSCLC
  TGI: > 100 µM
SNB-19 CNS
  TGI: 89.2 µM

## CC1=CCC[C@]2(C)C1=CC(=O)O[C@H]2c1ccoc1
HL-60(TB) leukemia
  TGI: > 100 µM
K-562 leukemia
  TGI: > 100 µM
SK-OV-3 ovarian
  TGI: > 100 µM
LOX IMVI melanoma
  TGI: > 100 µM
786-0 renal
  TGI: > 100 µM
NCI/ADR-RES ovarian
  TGI: > 100 µM
CAKI-1 renal
  TGI: > 100 µM
HS 578T breast
  TGI: > 100 µM
UACC-62 melanoma
  TGI: > 100 µM
DU-145 prostate
  TGI: > 100 µM
OVCAR-4 ovarian
  TGI: > 100 µM
HOP-62 NSCLC
  TGI: > 100 µM
SF-295 CNS
  TGI: > 100 µM
CCRF-CEM leukemia
  TGI: > 100 µM
MALME-3M melanoma
  TGI: > 100 µM
MDA-MB-231 breast
  TGI: > 100 µM
U251 CNS
  TGI: > 100 µM
RXF 393 renal
  TGI: > 100 µM
SW-620 colon
  TGI: > 100 µM
TK-10 renal
  TGI: > 100 µM
COLO 205 colon
  TGI: > 100 µM
UACC-257 melanoma
  TGI: > 100 µM
A549 NSCLC
  TGI: > 100 µM
OVCAR-5 ovarian
  TGI: > 100 µM
HOP-92 NSCLC
  TGI: > 100 µM
HT29 colon
  TGI: > 100 µM
A498 renal
  TGI: > 100 µM
MDA-MB-435
  TGI: > 100 µM
IGROV1 ovarian
  TGI: > 100 µM
PC-3 prostate
  TGI: > 100 µM
HCT-15 colon
  TGI: > 100 µM
SN12C renal
  TGI: > 100 µM
NCI-H460 lung
  TGI: > 100 µM
NCI-H23 lung
  TGI: > 100 µM
MCF7 breast
  TGI: > 100 µM
SK-MEL-2 melanoma
  TGI: > 100 µM
HCC-2998 colon
  TGI: > 100 µM
SR leukemia
  TGI: > 100 µM
MDA-N
  TGI: > 100 µM
ACHN renal
  TGI: > 100 µM
SNB-75 CNS
  TGI: > 100 µM
KM12 colon
  TGI: > 100 µM
SK-MEL-5 melanoma
  TGI: > 100 µM
NCI-H522 lung
  TGI: > 100 µM
UO-31 renal
  TGI: > 100 µM
OVCAR-3 ovarian
  TGI: > 100 µM
RPMI-8226 leukemia
  TGI: > 100 µM
OVCAR-8 ovarian
  TGI: > 100 µM
MOLT-4 leukemia
  TGI: > 100 µM
HCT-116 colon
  TGI: > 100 µM
SF-268 CNS
  TGI: > 100 µM
NCI-H226 lung
  TGI: > 100 µM
SK-MEL-28 melanoma
  TGI: > 100 µM
T-47D breast
  TGI: > 100 µM
EKVX NSCLC
  TGI: > 100 µM
SNB-19 CNS
  TGI: > 100 µM
